Source: US20180185391A1, “Drug Treatment Of Psoriasis And Of Other Skin Disorders Associated With Inhibition Of Differentiation Of Epidermal Cells” (priority 2016, published 2018)
Entries after “also recorded” stand apart in the source; their conditions may differ.

Assays:
[1] = system: palmoplantar pustulosis lesions; conditions: 0.55 mM alone for 4 days; cited from earlier work
psoriatic lesions = experiment: Clinical observation of psoriatic plaques under topical treatment; type: in vivo, human
Experimental: The base cream used is made predominantly of heavy paraffin oil (10% w/w), vaseline (10% w/w), stearyl alcohol (8% w/w), polyoxylsteareth-40 (3% w/w) and water (68% w/w) but another suitably formulated base cream is also possible. […] The dosing and the application schedules followed for the lesion shown in FIG. 1A (psoriatic plaque on the dorsum of hand) are as follows: about 30 μl cream applied directly onto the lesion with the aid of a steel spatula every four hours for 24 hours. The cream-applied area is protected from accidental smearing and loss of the cream by covering with an aluminum applicator (FIG. 1 B). The dosing and the application schedules followed for the lesion shown in FIG. 1 D (psoriatic plaque at the scapular region) are as follows: about 30 μl cream applied directly onto the lesion every four hours for 24 hours. The cream-applied area is similarly covered against the smearing and loss of cream. Other treated psoriatic patients and lesions received from about 30 to 35 μl cream to each lesion at intervals of every 3 to 5 hours, as suitable and convenient. Lesions were similarly covered against the smearing and loss of cream. […] The corticosteroid used for treatment of the lesion shown in FIG. 4E was clobetasol 17-propionate in a final concentration of about 1.1 mM in base cream.

psoriatic lesional skin = experiment: Histopathological examination (H&E) of treated psoriatic lesional skin sections; type: in vivo, human; conditions: 24th hour of treatment
Experimental: FIG. 1A and FIG. 1C show a psoriatic plaque before and after exposure to cyclopamine and the rapid clinical regression. The cyclopamine cream was applied to the proximal half of this lesion present on the dorsum of right hand of a patient having plaque-type psoriasis. At intervals of 4 hours, approximately 30 μl cream was applied directly onto the lesion and the cream-applied region was covered against accidental smearing and loss of the cream (FIG. 1 B).
FIG. 2A to FIG. 2W show histopathological and immunohistochemical examination findings of the tissue sections from the non-lesional skin, cyclopamine-treated lesional skin and non-treated lesional skin. Compared to the non-lesional skin (FIG. 2A), the non-treated lesional skin (FIG. 2B) is seen to display the typical histopathological signs of a psoriatic skin lesion mentioned above in the “Background of Invention”. […] These histopathological signs of regression to normalcy, exemplified in the figures FIG. 2C and FIG. 2D (examples from other cyclopamine-treated lesions and patients are given later) include the following: […]

cytokeratin 15 = experiment: Immunohistochemical staining with C8/144B antibody (cytokeratin 15)
Excerpt: All antibodies and reagents for these immunohistochemical investigations were purchased from DAKO (Glostrup, Denmark); human Ki-67 antigen was detected by the monoclonal antibody M7187, human epithelial antigen was detected by the monoclonal antibody Ber-EP4, human CD4 antigen was detected by the monoclonal antibody M0716, human CD8 antigen was detected by the monoclonal antibody C8/144B. Besides the CD8 antigen, the monoclonal antibody C8/144B is known to recognize and bind to the cytokeratin 15 expressed by the hair stem cells (Kanitakis J. et al. (1999) Eur. J. Dermatol. 9:363-365). A DAKO “universal visualization kit” (LSAB2) employing biotinylated secondary antibody and peroxidase-conjugated streptavidin (pre-diluted to match the dilutions of DAKO-supplied primary antibodies) was used for the visualization reactions. All reaction conditions were as recommended by the manufacturer.

human epithelial antigen = experiment: Immunohistochemical staining for epithelial antigen with Ber-EP4 antibody; type: in vivo
Excerpt: All reaction conditions were as recommended by the manufacturer.
The monoclonal antibody Ber-EP4 is known to label the basal layer cells in normal epidermis. The outer root sheath of hair follicles, where the hair stem cells are thought to reside, are also known to be labeled with Ber-EP4.

healthy skin = experiment: Follow-up of healthy and non-lesional skin for adverse effects of topical cyclopamine; conditions: for adverse effect on healthy / non-lesional skin: topical application under the described concentration and dosing conditions
Excerpt: Genetic heterogeneity and different ages of the psoriatic patients as well as the localizational heterogeneity of psoriatic lesions throughout body invite evaluation of the use of cyclopamine on different patients and lesions.
As there is evidence for the involvement of the hedgehog/smoothened signal transduction pathway in the maintenance of epidermal stem cells, untoward side effects of cyclopamine on skin are, a priori, possible and must be excluded.

[2] = psoriatic lesional skin, 24th hour of treatment

Structure (SMILES)	effect on palmoplantar pustulosis lesions [1]	regression or clearance of psoriatic lesions (psoriatic lesions; about […], alone, four days of treatment)	granular layer of epidermis (psoriatic lesional skin)	histopathological signs of the psoriatic lesion (psoriatic lesional skin)	cytokeratin 15 in basal cells of non-lesional epidermis (cytokeratin 15; non-lesional epidermis exposed to cyclopamine)	C8/144B (cytokeratin 15) labeling of epidermal basal layer cells (cytokeratin 15; [2])	erythema of the psoriatic plaque (psoriatic lesions; 12th hour of treatment, scapular plaque, cyclopamine applied for a day then discontinued)	effectiveness on psoriatic lesions (regression and clearance) (psoriatic lesions; every lesion treated, unrelated patients 29 to 57 years, extremities to trunk)	state of the psoriatic plaque (psoriatic lesions; fourth day of follow-up, scapular plaque, 1 day of treatment, still visible)	lesions subjected to the single-day treatment that failed to clear completely (psoriatic lesions; human, in vivo)	day on which the lesion cleared (psoriatic lesions; scapular plaque, cyclopamine applied for a day then discontinued)	Ber-EP4 labeling of basal cells of non-lesional skin (human epithelial antigen; non-lesional skin after exposure to cyclopamine)	Ber-EP4 labeling of epidermal basal layer cells (human epithelial antigen; [2])	appearance of skin sites of cyclopamine application (healthy skin; follow-up over a period of more than 31 months)	adverse effect on healthy / non-lesional skin (healthy skin)	adverse effect on healthy / non-lesional skin (healthy skin; listed as Cyclopamine)
CCC(=O)O[C@]1(C(=O)CCl)[C@@H](C)C[C@H]2[C@@H]3CCC4=CC(=O)C=C[C@]4(C)[C@@]3(F)[C@@H](O)C[C@@]21C [clobetasol 17-propionate, reference compound]	not to produce a perceptible effect	unable to cause a significant regression or clearance	–	–	–	–	–	–	–	–	–	–	–	–	–	–
CC1=C2C[C@H]3[C@@H](CC=C4C[C@@H](O)CC[C@@]43C)[C@@H]2CC[C@]12O[C@@H]1C[C@H](C)CN[C@H]1[C@H]2C [cyclopamine]	–	–	Re-appearance of the granular layer	dramatic improvement and regression to normalcy; also recorded: regression of the psoriatic plaque	continued to be positive for the cytokeratin 15	normalized and became labeled by the C8/144B antibody; also recorded: reversion to normalcy	decreased erythema	highly effective	marked regression	about 29%	> 8 days	remained Ber-EP4 positive	reverted to normalcy; also recorded: reversion to normalcy; also recorded: Epidermal basal layer cells are seen to display the epithelial antigen	healthy-looking normal skin and hair	no adverse effect has been detected	did not adversely affect the non-lesional skin; also recorded: no detectable adverse effect
